# Results: ChEMBL document CHEMBL4507291 (2021)
# How the values were obtained:
# [1] = system: Tyrosine-protein kinase ABL1 (Homo sapiens), P00519 [E255K]
# [2] = target: Activin receptor type-2B (Homo sapiens) (UniProt Q13705)
# [3] = target: Serine/threonine-protein kinase BRSK2 (Homo sapiens) (UniProt Q8IWQ3)
# [4] = target: T1, Ephrin type-B receptor 2 (Homo sapiens) (UniProt P29323)
# T1 sequence (whole entry): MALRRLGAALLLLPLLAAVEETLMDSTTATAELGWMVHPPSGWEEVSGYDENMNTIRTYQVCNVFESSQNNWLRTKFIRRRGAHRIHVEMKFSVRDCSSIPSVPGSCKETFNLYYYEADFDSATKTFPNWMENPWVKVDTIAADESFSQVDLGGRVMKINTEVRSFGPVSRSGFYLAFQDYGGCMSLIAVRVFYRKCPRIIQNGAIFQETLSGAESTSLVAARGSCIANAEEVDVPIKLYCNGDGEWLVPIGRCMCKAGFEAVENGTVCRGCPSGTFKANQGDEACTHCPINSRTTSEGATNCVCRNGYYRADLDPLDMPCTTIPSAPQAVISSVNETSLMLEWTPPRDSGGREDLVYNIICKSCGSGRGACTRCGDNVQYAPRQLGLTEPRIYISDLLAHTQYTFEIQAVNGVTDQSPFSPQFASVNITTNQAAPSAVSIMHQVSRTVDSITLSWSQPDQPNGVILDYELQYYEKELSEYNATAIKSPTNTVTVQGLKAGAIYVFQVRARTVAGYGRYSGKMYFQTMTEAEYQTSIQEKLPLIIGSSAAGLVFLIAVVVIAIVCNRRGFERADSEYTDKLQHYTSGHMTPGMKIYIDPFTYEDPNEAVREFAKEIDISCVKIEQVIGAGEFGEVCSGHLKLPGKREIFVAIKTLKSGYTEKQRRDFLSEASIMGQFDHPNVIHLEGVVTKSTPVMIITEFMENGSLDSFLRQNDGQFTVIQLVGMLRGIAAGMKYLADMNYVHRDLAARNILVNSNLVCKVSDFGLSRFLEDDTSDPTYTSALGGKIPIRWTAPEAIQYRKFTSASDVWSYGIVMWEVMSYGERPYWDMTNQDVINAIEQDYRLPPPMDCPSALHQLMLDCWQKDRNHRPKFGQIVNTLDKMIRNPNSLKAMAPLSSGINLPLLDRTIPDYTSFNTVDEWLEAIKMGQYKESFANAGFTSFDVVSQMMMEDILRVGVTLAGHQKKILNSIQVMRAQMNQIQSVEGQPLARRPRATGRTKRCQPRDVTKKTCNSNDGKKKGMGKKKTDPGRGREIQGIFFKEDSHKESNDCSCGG
# [5] = system: eIF-2-alpha kinase GCN2 (Homo sapiens), Q9P2K8 [S808G]
# Chain of eIF-2-alpha kinase GCN2 (Homo sapiens), Q9P2K8 [S808G] (Q9P2K8 whole entry S808G): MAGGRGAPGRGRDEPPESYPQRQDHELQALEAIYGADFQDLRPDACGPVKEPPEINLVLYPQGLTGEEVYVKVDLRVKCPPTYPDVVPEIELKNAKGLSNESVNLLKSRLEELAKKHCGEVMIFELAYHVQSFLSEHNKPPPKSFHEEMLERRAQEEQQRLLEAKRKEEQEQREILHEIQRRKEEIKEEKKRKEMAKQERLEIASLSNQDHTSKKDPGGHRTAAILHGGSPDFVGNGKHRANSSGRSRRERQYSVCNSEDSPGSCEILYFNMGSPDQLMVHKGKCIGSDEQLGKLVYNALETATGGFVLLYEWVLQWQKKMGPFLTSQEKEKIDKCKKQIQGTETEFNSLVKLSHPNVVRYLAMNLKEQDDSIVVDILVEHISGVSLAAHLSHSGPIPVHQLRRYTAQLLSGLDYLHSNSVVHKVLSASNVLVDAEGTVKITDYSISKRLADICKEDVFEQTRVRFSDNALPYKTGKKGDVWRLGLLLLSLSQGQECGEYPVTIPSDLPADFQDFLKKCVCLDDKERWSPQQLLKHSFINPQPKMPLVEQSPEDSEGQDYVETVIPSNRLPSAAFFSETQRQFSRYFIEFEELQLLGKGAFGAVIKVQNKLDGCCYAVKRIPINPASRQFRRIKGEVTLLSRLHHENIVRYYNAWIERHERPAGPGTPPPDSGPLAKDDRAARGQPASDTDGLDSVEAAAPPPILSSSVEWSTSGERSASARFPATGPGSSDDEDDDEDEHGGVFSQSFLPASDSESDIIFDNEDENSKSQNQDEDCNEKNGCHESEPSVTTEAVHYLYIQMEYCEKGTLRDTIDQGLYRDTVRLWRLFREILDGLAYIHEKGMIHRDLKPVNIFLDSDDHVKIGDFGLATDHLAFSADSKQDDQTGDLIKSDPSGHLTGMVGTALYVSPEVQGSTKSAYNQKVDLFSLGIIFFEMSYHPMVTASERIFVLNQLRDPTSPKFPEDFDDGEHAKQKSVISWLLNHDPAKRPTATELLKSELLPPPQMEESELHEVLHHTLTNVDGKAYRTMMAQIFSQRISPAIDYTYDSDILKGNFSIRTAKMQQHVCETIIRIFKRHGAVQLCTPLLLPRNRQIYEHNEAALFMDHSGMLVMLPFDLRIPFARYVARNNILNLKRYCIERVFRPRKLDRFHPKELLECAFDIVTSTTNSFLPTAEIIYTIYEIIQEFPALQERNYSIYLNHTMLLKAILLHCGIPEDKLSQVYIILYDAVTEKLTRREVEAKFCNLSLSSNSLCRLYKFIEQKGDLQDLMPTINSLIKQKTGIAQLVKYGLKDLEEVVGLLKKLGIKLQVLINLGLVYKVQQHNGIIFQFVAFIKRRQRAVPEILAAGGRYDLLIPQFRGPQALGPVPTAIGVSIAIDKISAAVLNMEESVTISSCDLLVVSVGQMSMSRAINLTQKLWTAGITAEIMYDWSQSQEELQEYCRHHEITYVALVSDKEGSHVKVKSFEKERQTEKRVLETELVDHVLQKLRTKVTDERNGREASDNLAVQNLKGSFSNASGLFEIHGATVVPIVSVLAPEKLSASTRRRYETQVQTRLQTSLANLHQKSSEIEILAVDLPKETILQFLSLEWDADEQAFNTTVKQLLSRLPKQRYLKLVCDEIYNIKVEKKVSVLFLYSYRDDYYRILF
# [6] = target: Tyrosine-protein kinase HCK (Homo sapiens) (UniProt P08631)
# Chain of Tyrosine-protein kinase HCK (Homo sapiens) (P08631 2-526 limits assumed): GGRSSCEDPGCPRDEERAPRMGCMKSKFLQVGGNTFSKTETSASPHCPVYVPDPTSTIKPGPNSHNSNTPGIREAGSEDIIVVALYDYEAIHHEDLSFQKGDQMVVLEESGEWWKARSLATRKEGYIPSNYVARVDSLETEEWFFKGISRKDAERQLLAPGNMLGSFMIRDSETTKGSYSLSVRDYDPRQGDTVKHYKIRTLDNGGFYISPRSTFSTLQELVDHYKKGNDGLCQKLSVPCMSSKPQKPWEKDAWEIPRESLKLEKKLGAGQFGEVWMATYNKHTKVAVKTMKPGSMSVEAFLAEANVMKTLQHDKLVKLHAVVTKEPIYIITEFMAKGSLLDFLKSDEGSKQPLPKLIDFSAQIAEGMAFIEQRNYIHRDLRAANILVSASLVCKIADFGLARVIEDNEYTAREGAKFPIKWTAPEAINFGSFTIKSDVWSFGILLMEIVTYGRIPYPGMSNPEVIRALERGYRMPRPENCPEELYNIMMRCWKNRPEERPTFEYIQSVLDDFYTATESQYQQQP
# [7] = target: Leukocyte tyrosine kinase receptor (Homo sapiens) (UniProt P29376)
# Chain of Leukocyte tyrosine kinase receptor (Homo sapiens) (P29376 whole entry): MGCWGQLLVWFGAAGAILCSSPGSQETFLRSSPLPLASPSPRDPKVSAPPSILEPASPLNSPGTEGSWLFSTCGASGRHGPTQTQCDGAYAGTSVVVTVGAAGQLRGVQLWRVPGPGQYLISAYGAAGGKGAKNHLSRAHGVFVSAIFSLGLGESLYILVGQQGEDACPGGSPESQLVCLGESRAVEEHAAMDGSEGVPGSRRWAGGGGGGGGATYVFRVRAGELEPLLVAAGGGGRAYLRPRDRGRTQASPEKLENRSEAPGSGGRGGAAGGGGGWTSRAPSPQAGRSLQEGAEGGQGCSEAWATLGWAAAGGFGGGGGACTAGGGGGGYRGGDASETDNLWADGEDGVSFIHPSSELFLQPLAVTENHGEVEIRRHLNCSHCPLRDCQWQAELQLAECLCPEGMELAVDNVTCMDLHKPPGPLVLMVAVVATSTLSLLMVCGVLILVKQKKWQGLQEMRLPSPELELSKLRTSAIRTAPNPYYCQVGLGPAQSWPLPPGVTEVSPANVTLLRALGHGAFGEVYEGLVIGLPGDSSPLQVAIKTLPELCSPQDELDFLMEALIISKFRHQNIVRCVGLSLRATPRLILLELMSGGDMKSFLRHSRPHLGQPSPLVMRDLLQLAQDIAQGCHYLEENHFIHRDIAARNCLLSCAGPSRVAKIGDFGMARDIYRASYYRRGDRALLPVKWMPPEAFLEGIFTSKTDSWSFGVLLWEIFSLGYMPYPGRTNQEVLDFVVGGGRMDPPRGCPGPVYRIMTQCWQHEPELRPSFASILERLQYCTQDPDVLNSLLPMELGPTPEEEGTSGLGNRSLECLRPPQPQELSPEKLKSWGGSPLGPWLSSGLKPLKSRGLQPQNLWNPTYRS
# [8] = target: T2, Mitogen-activated protein kinase kinase kinase 3 (Homo sapiens) (UniProt Q99759)
# T2 sequence (whole entry): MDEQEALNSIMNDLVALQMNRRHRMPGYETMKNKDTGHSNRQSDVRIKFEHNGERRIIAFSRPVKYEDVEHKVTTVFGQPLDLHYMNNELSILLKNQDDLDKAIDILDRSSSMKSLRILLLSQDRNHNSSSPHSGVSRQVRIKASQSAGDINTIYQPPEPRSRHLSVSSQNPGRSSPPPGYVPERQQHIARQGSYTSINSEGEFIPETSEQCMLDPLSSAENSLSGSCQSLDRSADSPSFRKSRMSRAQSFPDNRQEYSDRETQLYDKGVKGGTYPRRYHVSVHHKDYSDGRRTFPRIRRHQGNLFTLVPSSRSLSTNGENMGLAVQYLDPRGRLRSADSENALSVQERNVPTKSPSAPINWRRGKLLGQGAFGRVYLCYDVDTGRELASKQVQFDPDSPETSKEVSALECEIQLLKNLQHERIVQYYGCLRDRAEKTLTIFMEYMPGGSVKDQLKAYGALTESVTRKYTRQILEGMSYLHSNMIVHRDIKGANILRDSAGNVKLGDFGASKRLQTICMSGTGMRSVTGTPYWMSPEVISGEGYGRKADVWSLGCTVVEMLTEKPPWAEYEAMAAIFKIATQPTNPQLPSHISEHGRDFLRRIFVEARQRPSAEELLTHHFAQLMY
# [9] = system: Phosphatidylinositol 4,5-bisphosphate 3-kinase catalytic subunit alpha isoform (Homo sapiens), P42336 [I800L]
# [10] = target: Serine/threonine-protein kinase RIO3 (Homo sapiens) (UniProt O14730)
# Chain of Serine/threonine-protein kinase RIO3 (Homo sapiens) (O14730 whole entry): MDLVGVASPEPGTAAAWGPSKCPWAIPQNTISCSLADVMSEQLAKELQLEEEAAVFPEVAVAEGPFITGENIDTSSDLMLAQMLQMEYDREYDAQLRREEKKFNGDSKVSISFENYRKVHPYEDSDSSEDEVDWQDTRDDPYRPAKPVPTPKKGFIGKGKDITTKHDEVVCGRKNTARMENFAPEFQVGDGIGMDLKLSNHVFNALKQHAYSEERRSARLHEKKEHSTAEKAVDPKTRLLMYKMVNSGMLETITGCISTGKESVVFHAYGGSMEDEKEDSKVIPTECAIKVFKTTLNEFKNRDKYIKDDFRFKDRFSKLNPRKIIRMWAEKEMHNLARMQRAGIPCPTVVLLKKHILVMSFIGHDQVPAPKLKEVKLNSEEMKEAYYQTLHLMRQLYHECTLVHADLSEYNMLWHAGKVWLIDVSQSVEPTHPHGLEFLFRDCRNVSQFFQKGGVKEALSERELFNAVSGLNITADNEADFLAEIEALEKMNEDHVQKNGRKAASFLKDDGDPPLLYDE
# [11] = target: T3, Alpha-2C adrenergic receptor (Homo sapiens) (UniProt P18825); details: Compound concentration 10.0 uM
# T3 sequence (whole entry): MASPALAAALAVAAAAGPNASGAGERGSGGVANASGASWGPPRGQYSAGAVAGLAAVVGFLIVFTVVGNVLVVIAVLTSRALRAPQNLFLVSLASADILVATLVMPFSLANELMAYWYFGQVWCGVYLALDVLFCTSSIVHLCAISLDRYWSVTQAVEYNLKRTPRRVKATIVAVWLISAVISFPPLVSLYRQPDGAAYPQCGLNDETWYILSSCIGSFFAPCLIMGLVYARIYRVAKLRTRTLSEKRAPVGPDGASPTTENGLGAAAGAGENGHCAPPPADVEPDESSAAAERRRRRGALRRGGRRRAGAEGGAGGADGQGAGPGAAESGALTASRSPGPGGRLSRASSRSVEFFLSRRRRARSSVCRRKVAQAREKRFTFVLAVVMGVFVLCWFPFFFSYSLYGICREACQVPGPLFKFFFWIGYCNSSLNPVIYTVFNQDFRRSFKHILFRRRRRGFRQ
# [12] = target: Sigma intracellular receptor 2 (Homo sapiens, UniProt Q5BJF2); details: Compound concentration 10.0 uM
# Chain of Sigma intracellular receptor 2 (Q5BJF2 whole entry): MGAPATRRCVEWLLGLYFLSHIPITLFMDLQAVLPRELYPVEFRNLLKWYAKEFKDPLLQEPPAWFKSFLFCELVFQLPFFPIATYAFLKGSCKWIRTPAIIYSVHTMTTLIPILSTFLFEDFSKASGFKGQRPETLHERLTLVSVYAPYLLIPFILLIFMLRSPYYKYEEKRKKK
# [13] = Compound concentration 1000.0 nM
# [14] = Compound concentration 100.0 nM
# Chain of Serine/threonine-protein kinase BRSK2 (Homo sapiens) (Q8IWQ3 whole entry): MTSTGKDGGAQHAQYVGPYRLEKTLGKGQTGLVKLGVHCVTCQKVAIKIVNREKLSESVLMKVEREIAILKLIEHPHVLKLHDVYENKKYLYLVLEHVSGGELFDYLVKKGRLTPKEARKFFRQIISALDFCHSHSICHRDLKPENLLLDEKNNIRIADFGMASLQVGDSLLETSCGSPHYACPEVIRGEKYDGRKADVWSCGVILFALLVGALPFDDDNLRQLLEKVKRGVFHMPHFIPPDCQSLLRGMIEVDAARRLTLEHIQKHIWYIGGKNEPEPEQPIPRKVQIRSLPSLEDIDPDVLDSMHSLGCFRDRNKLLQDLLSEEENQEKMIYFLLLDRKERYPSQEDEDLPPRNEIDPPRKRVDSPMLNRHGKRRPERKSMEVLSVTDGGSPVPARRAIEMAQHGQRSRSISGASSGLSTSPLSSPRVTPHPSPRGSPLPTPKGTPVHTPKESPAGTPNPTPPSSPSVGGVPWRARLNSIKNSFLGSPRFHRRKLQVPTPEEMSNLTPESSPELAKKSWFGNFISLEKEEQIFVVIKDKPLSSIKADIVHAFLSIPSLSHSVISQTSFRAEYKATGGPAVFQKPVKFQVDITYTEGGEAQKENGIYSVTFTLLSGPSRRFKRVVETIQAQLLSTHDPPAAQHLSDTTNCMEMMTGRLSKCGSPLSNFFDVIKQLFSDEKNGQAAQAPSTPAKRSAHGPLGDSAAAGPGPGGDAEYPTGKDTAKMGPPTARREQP
# Chain of Activin receptor type-2B (Homo sapiens) (Q13705 whole entry): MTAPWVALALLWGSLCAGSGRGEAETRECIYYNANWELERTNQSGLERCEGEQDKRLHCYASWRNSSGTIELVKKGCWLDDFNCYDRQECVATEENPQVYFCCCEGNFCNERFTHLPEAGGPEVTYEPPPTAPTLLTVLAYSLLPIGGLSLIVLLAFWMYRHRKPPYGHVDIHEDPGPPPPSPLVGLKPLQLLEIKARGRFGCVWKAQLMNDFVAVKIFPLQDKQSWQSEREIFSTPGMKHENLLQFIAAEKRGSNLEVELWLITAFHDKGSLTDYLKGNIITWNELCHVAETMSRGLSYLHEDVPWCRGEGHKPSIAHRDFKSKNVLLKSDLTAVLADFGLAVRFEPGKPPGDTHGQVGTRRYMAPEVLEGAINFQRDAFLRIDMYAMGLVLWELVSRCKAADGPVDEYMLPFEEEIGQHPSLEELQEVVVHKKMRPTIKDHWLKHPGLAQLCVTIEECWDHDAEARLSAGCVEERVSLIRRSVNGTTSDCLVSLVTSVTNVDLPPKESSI
compound,measurement,setting,value
C[C@@H]1CN(c2cc(-c3nn(C)c4ccc(OC5(C)CC5)cc34)ncn2)C[C@H](C)O1 [MLi-2-NC],residual activity,[1]; [13],79%
same,residual activity,[2]; [13],98%
same,residual activity,[3]; [13],100%
same,residual activity,[4]; [13],95%
same,residual activity,[5]; [13],100%
same,residual activity,[6]; [13],96%
same,residual activity,[7]; [13],100%
same,residual activity,[8]; [13],90%
same,residual activity,[9]; [13],66%
same,residual activity,[10]; [13],100%
same,inhibition,[11],15.1%
same,inhibition,[12],90.4%
C[C@@H]1CN(c2cc(-c3n[nH]c4ccc(OC5(C)CC5)cc34)ncn2)C[C@H](C)O1 [MLi-2],residual activity,[1]; [14],66%
same,residual activity,[2]; [14],99%
same,residual activity,[3]; [14],100%
same,residual activity,[4]; [14],90%
same,residual activity,[5]; [14],81%
same,residual activity,[6]; [14],84%
same,residual activity,[7]; [14],84%
same,residual activity,[8]; [14],64%
same,residual activity,[9]; [14],87%
same,residual activity,[10]; [14],100%
same,inhibition,[11],7.85%
same,inhibition,[12],50.4%
